The supplement of paper PMC10307832

How the values were obtained:
Experiment in all cases: relative viability (nuclei count vs DMSO), 5 days (fraction); higher = more cells survive
[1] = compound: CCN(CC)CCNC(=O)c1c(C)[nH]c(/C=C2\C(=O)Nc3ccc(F)cc32)c1C [Sunitinib] + CS(=O)(=O)CCNCc1ccc(-c2ccc3ncnc(Nc4ccc(OCc5cccc(F)c5)c(Cl)c4)c3c2)o1 [Lapatinib] (partner 2 µM)
Outline: (§1)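 Each reported value is a median over duplicate plates. It expresses relative viability: treated-well nuclei count divided by vehicle-well nuclei count. Lung cancer cell lines in 1536-well plates were dosed by pin tool a day after seeding, alone with one drug or with a fixed anchor-drug dose plus five library-drug doses (not always all listed) in √10 steps, and nuclei were counted after 5 days.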

[2] = compound: CCN(CC)CCNC(=O)c1c(C)[nH]c(/C=C2\C(=O)Nc3ccc(F)cc32)c1C [Sunitinib] + CCNC(=O)c1noc(-c2cc(C(C)C)c(O)cc2O)c1-c1ccc(CN2CCOCC2)cc1 [Luminespib] (partner 0.01 µM)
Outline: as §1

[3] = compound: CCN(CC)CCNC(=O)c1c(C)[nH]c(/C=C2\C(=O)Nc3ccc(F)cc32)c1C [Sunitinib] + O=C(c1cc(Cc2n[nH]c(=O)c3ccccc23)ccc1F)N1CCN(C(=O)C2CC2)CC1 [Olaparib] (partner 8 µM)
Outline: as §1

[4] = compound: CCN(CC)CCNC(=O)c1c(C)[nH]c(/C=C2\C(=O)Nc3ccc(F)cc32)c1C [Sunitinib] + Nc1ncn([C@H]2C[C@H](O)[C@@H](CO)O2)c(=O)n1 [Decitabine] (partner 2 µM)
Outline: as §1

| Cell Line | relative viability ([1]; first compound 0.02 µM) | relative viability ([1]; first compound 0.06325 µM) | relative viability ([1]; first compound 0.2 µM) | relative viability ([1]; first compound 0.6325 µM) | relative viability ([1]; first compound 2 µM) | relative viability ([2]; first compound 0.02 µM) | relative viability ([2]; first compound 0.06325 µM) | relative viability ([2]; first compound 0.2 µM) | relative viability ([2]; first compound 0.6325 µM) | relative viability ([2]; first compound 2 µM) | relative viability ([3]; first compound 0.02 µM) | relative viability ([3]; first compound 0.06325 µM) | relative viability ([3]; first compound 0.2 µM) | relative viability ([3]; first compound 0.6325 µM) | relative viability ([3]; first compound 2 µM) | relative viability ([4]; first compound 0.02 µM) | relative viability ([4]; first compound 0.06325 µM) | relative viability ([4]; first compound 0.2 µM) | relative viability ([4]; first compound 0.6325 µM) | relative viability ([4]; first compound 2 µM) |
| --- | --- | --- | --- | --- | --- | --- | --- | --- | --- | --- | --- | --- | --- | --- | --- | --- | --- | --- | --- | --- |
| NCI-H727 | 0.88 | 0.887 | 1.36 | 0.937 | 0.781 | 0.429 | 0.498 | 0.456 | 0.457 | 0.313 | 0.747 | 0.649 | 0.717 | 0.593 | 0.778 | 0.837 | 0.836 | 0.857 | 0.754 | 0.889 |
| RERF-LC-KJ | 0.887 | 0.844 | – | – | 0.828 | 1.02 | 1.25 | 1.35 | 1.4 | 1.14 | 0.872 | 0.939 | 1.04 | 0.971 | 0.896 | 0.713 | 0.743 | 0.651 | 0.683 | 0.777 |
| PC-3 [JPC-3] | 0.456 | 0.459 | 0.494 | 0.464 | 0.5 | 0.681 | 0.672 | 0.755 | 0.762 | 0.692 | 1.05 | 1.12 | 1.22 | 1.12 | 0.926 | 0.89 | 0.788 | – | 0.79 | 0.764 |
| PC-14 | 0.301 | 0.332 | 0.369 | 0.33 | 0.314 | 0.18 | 0.121 | 0.201 | 0.144 | 0.216 | 0.292 | 0.334 | 0.196 | 0.335 | 0.211 | 0.2 | 0.23 | 0.239 | 0.23 | 0.252 |
| 201T | – | 1.08 | 1.02 | 1.05 | 1.04 | 1.05 | 1.05 | 1.05 | 1.08 | 1.03 | 0.843 | 0.845 | 0.855 | 0.865 | 0.853 | 0.838 | 0.91 | – | 0.872 | 0.88 |
| SW 1573 | 1.19 | 1.3 | 1.31 | 1.14 | – | 0.156 | 0.248 | 0.247 | 0.189 | 0.186 | 0.488 | 0.56 | 0.622 | 0.522 | 0.511 | 0.403 | 0.508 | 0.556 | 0.62 | 0.554 |
| NCI-H1355 | 1.01 | 1.04 | 1.12 | 1.07 | 1.06 | 0.723 | 0.735 | 0.718 | 0.712 | 0.719 | 0.786 | 0.812 | 0.904 | 0.818 | 0.712 | 0.369 | 0.381 | 0.375 | 0.365 | 0.345 |
| UMC-11 | 0.984 | – | 1.07 | 1.03 | 0.967 | 1.01 | 1.02 | 1.14 | 1.1 | 0.943 | 0.387 | 0.382 | 0.674 | 0.324 | 0.324 | 0.553 | 0.551 | 0.583 | 0.737 | 0.597 |
| LK-2 | 0.773 | – | 1.15 | 0.939 | 0.866 | 0.193 | 0.213 | 0.208 | 0.231 | 0.2 | 0.668 | 0.82 | 0.926 | 0.617 | 0.6 | 0.238 | 0.409 | 0.299 | 0.316 | 0.279 |
| NCI-H2170 | 0.313 | 0.264 | 0.271 | 0.268 | 0.243 | 0.642 | 0.586 | 0.729 | 0.686 | 0.565 | 0.593 | 0.571 | 0.651 | 0.605 | 0.535 | 0.452 | 0.465 | 0.484 | 0.422 | 0.412 |
| HCC-827 | 0.191 | 0.198 | 0.198 | 0.222 | 0.215 | 0.572 | 0.377 | 0.606 | 0.751 | 0.554 | 0.722 | 0.696 | 0.622 | 0.648 | 0.597 | 0.324 | 0.314 | 0.31 | 0.322 | 0.292 |
| NCI-H460 | 0.85 | – | 1.3 | 1.08 | 0.927 | 0.0352 | 0.0388 | 0.0351 | 0.0528 | 0.0318 | 0.41 | 0.484 | 0.614 | 0.473 | 0.578 | 0.457 | 0.54 | 0.566 | 0.527 | 0.563 |
| NCI-H1915 | 0.958 | 1.03 | 1.04 | 0.998 | 1.02 | 0.5 | 0.846 | 0.822 | 0.869 | 0.83 | 0.261 | 0.288 | 0.268 | 0.245 | 0.289 | 0.266 | 0.278 | 0.264 | 0.26 | 0.271 |
| EPLC-272H | 0.837 | 1.02 | 1.14 | 0.937 | 0.915 | 0.364 | 0.38 | 0.561 | 0.582 | 0.262 | 0.764 | 0.998 | 1.01 | 0.746 | 0.388 | 0.346 | 0.408 | 0.389 | 0.368 | 0.312 |
| NCI-H1666 | – | 0.9 | 0.584 | 0.719 | 0.671 | 0.983 | – | 1.07 | 1.07 | 1.12 | 0.77 | 0.825 | 0.75 | 0.862 | 0.85 | 0.905 | 0.884 | 0.738 | 0.698 | 0.735 |
| NCI-H838 | 0.885 | 1.38 | 1.22 | 1.09 | 0.894 | 0.351 | 0.328 | 0.301 | 0.261 | 0.234 | 0.757 | 0.766 | 0.812 | 0.731 | 0.58 | 0.447 | 0.489 | 0.476 | 0.485 | 0.448 |
| LOU-NH91 | 0.732 | 0.839 | 0.828 | 0.816 | 0.764 | 0.332 | 0.403 | 0.338 | 0.357 | 0.349 | 0.899 | 0.903 | 1.01 | 1.05 | 0.875 | 0.787 | 0.824 | 0.826 | 0.805 | 0.835 |
